Measured values taken from patent publication US20230085307A1, “PYRIDAZINONE COMPOUND AND HERBICIDE” (NISSAN CHEMICAL CORPORATION, priority 2019, published 2023).

Key:
Japanese bulrush = assay: Test Example 1: herbicidal activity, application before weed generation under submerged conditions (Table 16, symbol B); format: in vivo, Japanese bulrush (Schoenoplectus juncoides); settings: for Herbicidal effect on B: Japanese bulrush (grade 0-5): 320 g/ha applied herbicide
Summary of the method: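 Submerged Wagner pots (alluvial soil, 4 cm water) sown with weed seeds and planted with 2.5-leaf rice seedlings; emulsifiable concentrate diluted in water applied to water surface on sowing day. Held in greenhouse at 25-30 °C; injury scored 0-5 by herbicidal rate after three weeks.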

late watergrass = assay: Test Example 2: herbicidal activity, application during weed generation under submerged conditions (Table 17, symbol A); format: in vivo, late watergrass (Echinochloa oryzicola); settings: application during weed generation, submerged conditions
Summary of the method: (§1)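 Wagner pot, alluvial soil, 4 cm flood; mixed sowing of all species; greenhouse 25° C.–30° C. Emulsifiable formulation, water-diluted to predetermined dose, applied to paddy water at 1–2 leaf stage. Effect rated at 3 wk using the earlier test's scoring criteria.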

oval-leafed pondweed = assay: Test Example 2: herbicidal activity, application during weed generation under submerged conditions (Table 17, symbol C); format: in vivo, oval-leafed pondweed (Monochoria vaginalis); settings: application during weed generation, submerged conditions
Summary of the method: as §1

Chinese sprangletop = assay: Test Example 3: herbicidal effect by foliage application, Wagner pot (Table 18, symbol D); format: in vivo, chinese sprangletop (Leptochloa chinensis); settings: for herbicidal effect on D (Chinese sprangletop), rating 0-5: 320 g/ha
Summary of the method: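 Plants were sown in alluvial soil held under 0.1–0.5 cm standing water and grown 14 days in a greenhouse at 25–30 °C. An emulsifiable formulation, water-diluted to the set dose, was then sprayed onto the foliage, and effects were scored three weeks later using previously defined criteria.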

southern crabgrass = assay: Test Example 4: herbicidal effect by soil treatment (Table 19, symbol F); format: in vivo, southern crabgrass (Digitaria ciliaris); settings: for herbicidal effect rating, F: southern crabgrass: 320 g/ha
Summary of the method: (§2)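 Pre-emergence style soil spray: seeds under ~1.5 cm sterilized diluvial soil received a uniform coat of emulsion diluted to the predetermined herbicide amount. Greenhouse 25–30° C; readout at week three on previously defined criteria.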

wild oat [1] = assay: Test Example 4: herbicidal effect by soil treatment (Table 19, symbol I); format: in vivo, wild oat (Avena fatua); settings: for herbicidal effect rating, I: wild oat: 320 g/ha
Summary of the method: as §2

blackgrass = assay: Test Example 4: herbicidal effect by soil treatment (Table 19, symbol J); format: in vivo, blackgrass (Alopecurus myosuroides); settings: for herbicidal effect rating, J: blackgrass: 320 g/ha
Summary of the method: as §2

Italian ryegrass = assay: Test Example 4: herbicidal effect by soil treatment (Table 19, symbol K); format: in vivo, Italian ryegrass (Lolium multiflorum); settings: for herbicidal effect rating, K: Italian ryegrass: 320 g/ha
Summary of the method: as §2

windgrass [2] = assay: Test Example 4: herbicidal effect by soil treatment (Table 19, symbol L); format: in vivo, windgrass (Apera spica-venti); settings: for herbicidal effect rating, L: windgrass: 320 g/ha
Summary of the method: as §2

lambsquarters [3] = assay: Test Example 4: herbicidal effect by soil treatment (Table 19, symbol O); format: in vivo, lambsquarters (Chenopodium album); settings: for herbicidal effect rating, O: lambsquarters: 320 g/ha
Summary of the method: as §2

persian speedwell [4] = assay: Test Example 4: herbicidal effect by soil treatment (Table 19, symbol R); format: in vivo, Persian speedwell (Veronica persica); settings: for herbicidal effect rating, R: persian speedwell: 320 g/ha
Summary of the method: as §2

barnyard grass = assay: Test Example 5: herbicidal effect by foliage application, plastic box (Table 20, symbol H); format: in vivo, barnyard grass (Echinochloa crus-galli); settings: foliage application
Summary of the method: (§3)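 Plants were sown into sterilized diluvial soil under about 1.5 cm cover and kept in a greenhouse at 25° C. to 30° C. Fourteen days on, foliage received an even spray of the diluted emulsion. Herbicidal or crop effect was judged three weeks afterwards.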

wild oat [5] = assay: Test Example 5: herbicidal effect by foliage application, plastic box (Table 20, symbol I); format: in vivo, wild oat (Avena fatua); settings: foliage application
Summary of the method: as §3

windgrass [6] = assay: Test Example 5: herbicidal effect by foliage application, plastic box (Table 20, symbol L); format: in vivo, windgrass (Apera spica-venti); settings: foliage application
Summary of the method: as §3

velvetleaf = assay: Test Example 5: herbicidal effect by foliage application, plastic box (Table 20, symbol M); format: in vivo, velvetleaf (Abutilon theophrasti); settings: foliage application
Summary of the method: as §3

lambsquarters [7] = assay: Test Example 5: herbicidal effect by foliage application, plastic box (Table 20, symbol O); format: in vivo, lambsquarters (Chenopodium album); settings: foliage application
Summary of the method: as §3

persian speedwell [8] = assay: Test Example 5: herbicidal effect by foliage application, plastic box (Table 20, symbol R); format: in vivo, Persian speedwell (Veronica persica); settings: foliage application
Summary of the method: as §3

[9] = 320 g/ha, evaluated three weeks after application
[10] = amount of applied herbicide 320 g/ha
[11] = 320 g/ha, 3 weeks after application
[12] = amount of applied herbicide 80 g/ha
[13] = 80 g/ha, three weeks after application

`CCCC(=O)Oc1c(C)nn(C)c(=O)c1-c1c(-c2ccc(OC)c(OC)c2)sc2ccc(F)cc12` [2-089] was tested, and the “Herbicidal effect on B: Japanese bulrush (grade 0-5)” value (shortened to “Herbicidal effect on B”) (Japanese bulrush) was 4 (Herbicidal rate of 70% or more and less than 90%), the “herbicidal effect rating, A: late watergrass” value (late watergrass; AAH 320 g/ha) was 4 (Herbicidal rate of 70% or more and less than 90%) and the “herbicidal effect rating, C: oval-leafed pondweed” value (“herbicidal effect rating, C” below) (oval-leafed pondweed; AAH 320 g/ha) was 4 (Herbicidal rate of 70% or more and less than 90%). For the same compound, the “herbicidal effect on D (Chinese sprangletop), rating 0-5” value (Chinese sprangletop) was 3 (Herbicidal rate of 40% or more and less than 70%), the “herbicidal effect rating, F: southern crabgrass” value (southern crabgrass) was 4 (Herbicidal rate of 70% or more and less than 90%) and the “herbicidal effect rating, I: wild oat” value (wild oat [1]) was 0 (Herbicidal rate of 5% or less (almost no effect)). The “herbicidal effect rating, J: blackgrass” value (blackgrass) was 0 (Herbicidal rate of 5% or less (almost no effect)), the “herbicidal effect rating, K: Italian ryegrass” value (Italian ryegrass) was 4 (Herbicidal rate of 70% or more and less than 90%) and the “herbicidal effect rating, L: windgrass” value (windgrass [2]) was 0 (Herbicidal rate of 5% or less (almost no effect)). The “herbicidal effect rating, O: lambsquarters” value (lambsquarters [3]) was 5 (Herbicidal rate of 90% or more (almost completely withered)), the “herbicidal effect rating, R: persian speedwell” value (persian speedwell [4]) was 5 (Herbicidal rate of 90% or more (almost completely withered)) and the “herbicidal effect on H: barnyard grass” value (barnyard grass; [9]) was 4 (Herbicidal rate of 70% or more and less than 90%). For the same compound, the “herbicidal effect on I: wild oat” value (wild oat [5]; [9]) was 0 (Herbicidal rate of 5% or less (almost no effect)), the “herbicidal effect on L: windgrass” value (windgrass [6]; [9]) was 0 (Herbicidal rate of 5% or less (almost no effect)) and the “herbicidal effect on M: velvetleaf” value (velvetleaf; [9]) was 5 (Herbicidal rate of 90% or more (almost completely withered)). The “herbicidal effect on O: lambsquarters” value (lambsquarters [7]; [9]) was 4 (Herbicidal rate of 70% or more and less than 90%) and the “herbicidal effect on R: persian speedwell” value (persian speedwell [8]; [9]) was 5 (Herbicidal rate of 90% or more (almost completely withered)).
With `Cc1nn(C)c(=O)c(-c2c(-c3ccc(OC4CC4)cc3)sc3ccc(F)cc23)c1O` [2-217] the “Herbicidal effect on B” value (Japanese bulrush) was 5 (Herbicidal rate of 90% or more (almost completely withered)), the “herbicidal effect rating, A: late watergrass” value (late watergrass; AAH 320 g/ha) was 3 (Herbicidal rate of 40% or more and less than 70%) and the “herbicidal effect rating, C” value (oval-leafed pondweed; AAH 320 g/ha) was 0 (Herbicidal rate of 5% or less (almost no effect)). The “herbicidal effect on D: Chinese sprangletop” value (Chinese sprangletop; [10]) was 5 (Herbicidal rate of 90% or more (almost completely withered)), the “F: southern crabgrass, herbicidal effect rating” value (southern crabgrass; [10]) was 4 (Herbicidal rate of 70% or more and less than 90%) and the “I: wild oat, herbicidal effect rating” value (wild oat [1]; [10]) was 0 (Herbicidal rate of 5% or less (almost no effect)). The “J: blackgrass, herbicidal effect rating” value (blackgrass; [10]) was 0 (Herbicidal rate of 5% or less (almost no effect)), the “K: Italian ryegrass, herbicidal effect rating” value (Italian ryegrass; [10]) was 4 (Herbicidal rate of 70% or more and less than 90%) and the “L: windgrass, herbicidal effect rating” value (windgrass [2]; [10]) was 0 (Herbicidal rate of 5% or less (almost no effect)). For the same compound, the “O: lambsquarters, herbicidal effect rating” value (lambsquarters [3]; [10]) was 4 (Herbicidal rate of 70% or more and less than 90%), the “R: persian speedwell, herbicidal effect rating” value (persian speedwell [4]; [10]) was 4 (Herbicidal rate of 70% or more and less than 90%) and the “herbicidal effect on H: barnyard grass (criteria 0-5)” value (barnyard grass; [9]) was 5 (Herbicidal rate of 90% or more (almost completely withered)). The “herbicidal effect on I: wild oat (criteria 0-5)” value (wild oat [5]; [9]) was 4 (Herbicidal rate of 70% or more and less than 90%), the “herbicidal effect on L: windgrass (criteria 0-5)” value (windgrass [6]; [9]) was 5 (Herbicidal rate of 90% or more (almost completely withered)) and the “herbicidal effect on M: velvetleaf (criteria 0-5)” value (velvetleaf; [9]) was 5 (Herbicidal rate of 90% or more (almost completely withered)). The “herbicidal effect on O: lambsquarters (criteria 0-5)” value (lambsquarters [7]; [9]) was 4 (Herbicidal rate of 70% or more and less than 90%) and the “herbicidal effect on R: persian speedwell (criteria 0-5)” value (persian speedwell [8]; [9]) was 5 (Herbicidal rate of 90% or more (almost completely withered)).
For `CCCC(=O)Oc1c(C)nn(C)c(=O)c1-c1c(-c2ccc(CC)cc2)sc2ccc(F)cc12` [2-016], the “Herbicidal effect on B” value (Japanese bulrush) was 3 (Herbicidal rate of 40% or more and less than 70%), the “herbicidal effect rating, A: late watergrass” value (late watergrass; AAH 320 g/ha) was 3 (Herbicidal rate of 40% or more and less than 70%) and the “herbicidal effect rating, C” value (oval-leafed pondweed; AAH 320 g/ha) was 4 (Herbicidal rate of 70% or more and less than 90%). The “herbicidal effect on D (Chinese sprangletop), rating 0-5” value (Chinese sprangletop) was 5 (Herbicidal rate of 90% or more (almost completely withered)), the “herbicidal effect rating, F: southern crabgrass” value (southern crabgrass) was 0 (Herbicidal rate of 5% or less (almost no effect)) and the “herbicidal effect rating, I: wild oat” value (wild oat [1]) was 0 (Herbicidal rate of 5% or less (almost no effect)). The “herbicidal effect rating, J: blackgrass” value (blackgrass) was 2 (Herbicidal rate of 20% or more and less than 40%), the “herbicidal effect rating, K: Italian ryegrass” value (Italian ryegrass) was 3 (Herbicidal rate of 40% or more and less than 70%) and the “herbicidal effect rating, L: windgrass” value (windgrass [2]) was 1 (Herbicidal rate of 5% or more and less than 20%). For the same compound, the “herbicidal effect rating, O: lambsquarters” value (lambsquarters [3]) was 5 (Herbicidal rate of 90% or more (almost completely withered)), the “herbicidal effect rating, R: persian speedwell” value (persian speedwell [4]) was 4 (Herbicidal rate of 70% or more and less than 90%) and the “effect on barnyard grass (H)” value (barnyard grass; [11]) was 3 (Herbicidal rate of 40% or more and less than 70%). For the same compound, the “effect on wild oat (I)” value (wild oat [5]; [11]) was 3 (Herbicidal rate of 40% or more and less than 70%), the “effect on windgrass (L)” value (windgrass [6]; [11]) was 5 (Herbicidal rate of 90% or more (almost completely withered)) and the “effect on velvetleaf (M)” value (velvetleaf; [11]) was 5 (Herbicidal rate of 90% or more (almost completely withered)). The “effect on lambsquarters (O)” value (lambsquarters [7]; [11]) was 5 (Herbicidal rate of 90% or more (almost completely withered)) and the “effect on persian speedwell (R)” value (persian speedwell [8]; [11]) was 5 (Herbicidal rate of 90% or more (almost completely withered)).
In the case of `CCOc1ccccc1-c1sc2cc(OC)ccc2c1-c1c(O)c(C)nn(C)c1=O` [3-070], the “Herbicidal effect, B: Japanese bulrush” value (Japanese bulrush; [12]) is reported as 5 (Herbicidal rate of 90% or more (almost completely withered)), the “herbicidal effect rating, A: late watergrass” value (late watergrass; AAH 80 g/ha) is reported as 3 (Herbicidal rate of 40% or more and less than 70%) and the “herbicidal effect rating, C” value (oval-leafed pondweed; AAH 80 g/ha) is reported as 4 (Herbicidal rate of 70% or more and less than 90%). The “herbicidal effect on Chinese sprangletop (D)” value (Chinese sprangletop; 80 g/ha) was 5 (Herbicidal rate of 90% or more (almost completely withered)), the “F: southern crabgrass, herbicidal effect grade” value (southern crabgrass; [12]) was 4 (Herbicidal rate of 70% or more and less than 90%) and the “I: wild oat, herbicidal effect grade” value (wild oat [1]; [12]) was 0 (Herbicidal rate of 5% or less (almost no effect)). For the same compound, the “J: blackgrass, herbicidal effect grade” value (blackgrass; [12]) was 0 (Herbicidal rate of 5% or less (almost no effect)), the “K: Italian ryegrass, herbicidal effect grade” value (Italian ryegrass; [12]) was 0 (Herbicidal rate of 5% or less (almost no effect)) and the “L: windgrass, herbicidal effect grade” value (windgrass [2]; [12]) was 0 (Herbicidal rate of 5% or less (almost no effect)). For the same compound, the “O: lambsquarters, herbicidal effect grade” value (lambsquarters [3]; [12]) was 0 (Herbicidal rate of 5% or less (almost no effect)), the “R: persian speedwell, herbicidal effect grade” value (persian speedwell [4]; [12]) was 5 (Herbicidal rate of 90% or more (almost completely withered)) and the “H: barnyard grass, herbicidal effect grade” value (barnyard grass; [13]) was 5 (Herbicidal rate of 90% or more (almost completely withered)). For the same compound, the “I: wild oat, herbicidal effect grade” value (wild oat [5]; [13]) was 5 (Herbicidal rate of 90% or more (almost completely withered)), the “L: windgrass, herbicidal effect grade” value (windgrass [6]; [13]) was 5 (Herbicidal rate of 90% or more (almost completely withered)) and the “M: velvetleaf, herbicidal effect grade” value (velvetleaf; [13]) was 5 (Herbicidal rate of 90% or more (almost completely withered)). For the same compound, the “O: lambsquarters, herbicidal effect grade” value (lambsquarters [7]; [13]) was 5 (Herbicidal rate of 90% or more (almost completely withered)) and the “R: persian speedwell, herbicidal effect grade” value (persian speedwell [8]; [13]) was 5 (Herbicidal rate of 90% or more (almost completely withered)).
